{
  "source": "patent US7732483B2",
  "about": "“DNA-PK inhibitors” (Kudos Pharmaceuticals Limited, priority 2004, dated 2010)",
  "origin": "cited, not measured here",
  "test_system": "cells",
  "conditions": "Rosenzweig et al. 1999",
  "data": [
    {"compound": "O=c1cc(N2CCOCC2)oc2c(-c3ccccc3)cccc12", "note": "[LY294002]", "values": [
      {"measurement": "sensitisation of cells to the effects of IR", "result": "weakly sensitise cells to the effects of IR"}
    ]}
  ]
}
